Measured values as given in patent US20230172206A1 (BASF SE, priority 2020, published 2023).

What was measured:
[1] = tested on: Phakopsora pachyrhizi (F129L); experiment: Protective control of soybean rust on soybeans (PHAKPA P6); assay type: in vivo; conditions: F129L isolate; for % PHAKPA (F129L) Disease level P6 at 4 ppm: protective P6, 4 ppm; for % PHAKPA (F129L) Disease level P6 at 16 ppm: protective P6, 16 ppm
[2] = tested on: Phakopsora pachyrhizi (F129L); experiment: Protective control of soybean rust on soybeans (PHAKPA P2); assay type: in vivo; conditions: F129L isolate; for % PHAKPA (F129L) Disease level P2 at 4 ppm: protective P2, 4 ppm; for % PHAKPA (F129L) Disease level P2 at 16 ppm: protective P2, 16 ppm

| Compound | % PHAKPA (F129L) Disease level P6 at 4 ppm [1] [%] | % PHAKPA (F129L) Disease level P6 at 16 ppm [1] [%] | % PHAKPA (F129L) Disease level P2 at 4 ppm [2] [%] | % PHAKPA (F129L) Disease level P2 at 16 ppm [2] [%] |
| --- | --- | --- | --- | --- |
| C=C(C)c1cccc(/C(=N\OC)C(=O)NC)c1CO/N=C(\C)c1ccccc1 [compound 399] | 90 | 15 | 67 | 8 |
| C=Cc1cccc(/C(=N\OC)C(=O)NC)c1CO/N=C(\C)c1ccccc1 [compound 400] | 8 | 0 | 2 | 0 |
| C#Cc1cccc(/C(C)=N/OCc2c(C)cccc2/C(=N\OC)C(=O)NC)c1F [compound 401] | 32 | 4 | 17 | 5 |
| CO/C=C(/C(=O)OC)c1cccc(C)c1CO/N=C(\C)c1cc(F)c(F)cc1CC(F)(F)F [compound 405] | 70 | 27 | 97 | 27 |
| CNC(=O)/C(=N/OC)c1cccc(C)c1CO/N=C(\C)c1cc(F)c(F)cc1CC(F)(F)F [compound 406] | 67 | 23 | 97 | 30 |
| CNC(=O)/C(=N/OC)c1cccc(C)c1CO/N=C(\C)c1ccc(Cc2ccccc2)cc1C(F)(F)F [compound 407] | 17 | 4 | 12 | 6 |
| CO/N=C(/C(=O)OC)c1cccc(C)c1CO/N=C(\C)c1ccc(Cc2ccccc2)cc1C(F)(F)F [compound 408] | 33 | 13 | 30 | 12 |
| CO/N=C(/C(=O)OC)c1cccc(C)c1CO/N=C(\C)c1cc(F)c(F)cc1C(F)(F)F [compound 409] | 83 | 73 | 77 | 40 |
| CNC(=O)/C(=N/OC)c1cccc(C)c1CO/N=C(\C)c1cc(F)c(F)cc1C(F)(F)F [compound 410] | 35 | 1 | 9 | 0 |
| CNC(=O)/C(=N/OC)c1cccc(C)c1CO/N=C(\C)c1ccc(Cl)c(F)c1CC(F)(F)F [compound 412] | 40 | 6 | 47 | 6 |
| CNC(=O)/C(=N/OC)c1cccc(C)c1CO/N=C(\C)c1ccc(-c2ccccc2)cc1C(F)(F)F [compound 413] | 33 | 15 | 40 | 15 |
| CO/N=C(/C(=O)OC)c1cccc(C)c1CO/N=C(\C)c1ccc(-c2ccccc2)cc1C(F)(F)F [compound 414] | 53 | 15 | 53 | 9 |
| CNC(=O)/C(=N/OC)c1cccc(C)c1CO/N=C(\C)c1ccc(/C(C)=N\OC)cc1OC(F)(F)F [compound 415] | 67 | 11 | 47 | 5 |
| CO/N=C(/C(=O)OC)c1cccc(C)c1CO/N=C(\C)c1ccc(Cc2ccccc2)cc1OC(F)(F)F [compound 416] | 67 | 25 | 57 | 27 |
| CO/N=C(/C)c1ccc(/C(C)=N/OCc2c(C)cccc2/C(=N\OC)C(=O)OC)c(C(F)(F)F)c1 [compound 417] | 63 | 22 | 35 | 18 |
| CO/N=C(/C)c1ccc(/C(C)=N/OCc2c(C)cccc2/C(=N\OC)C(=O)OC)c(OC(F)(F)F)c1 [compound 418] | 73 | 57 | 70 | 33 |
| CNC(=O)/C(=N/OC)c1cccc(C)c1CO/N=C(\C)c1ccc(Cc2ccccc2)cc1OC(F)(F)F [compound 419] | 60 | 12 | 40 | 18 |
| CNC(=O)/C(=N/OC)c1cccc(C)c1CO/N=C(\C)c1ccc(/C(C)=N\OC)cc1C(F)(F)F [compound 420] | 12 | 1 | 8 | 0 |
| CO/N=C(/C(=O)OC)c1cccc(C)c1CO/N=C(\C)c1cccc(Cl)c1C(F)(F)F [compound 421] | 87 | 57 | 100 | 33 |
| CNC(=O)/C(=N/OC)c1cccc(C)c1CO/N=C(\C)c1cccc(Cl)c1C(F)(F)F [compound 422] | 32 | 2 | 30 | 0 |
| CO/N=C(/C(=O)OC)c1cccc(C)c1CO/N=C(\C)c1ccc(C#N)cc1C(F)(F)F [compound 423] | 93 | 53 | 100 | 57 |
| CNC(=O)/C(=N/OC)c1cccc(C)c1CO/N=C(\C)c1ccc(C#N)cc1C(F)(F)F [compound 424] | 97 | 50 | 100 | 27 |
| CO/N=C(/C(=O)OC)c1cccc(C)c1CO/N=C(\C)c1ccc(-c2ccc(F)cc2)cc1C(F)(F)F [compound 425] | 53 | 40 | 27 | 28 |
| CNC(=O)/C(=N/OC)c1cccc(C)c1CO/N=C(\C)c1ccc(-c2ccc(F)cc2)cc1C(F)(F)F [compound 426] | 27 | 10 | 7 | 1 |
| CO/N=C(/C(=O)OC)c1cccc(C)c1CO/N=C(\C)c1c(Cl)cc(Cl)cc1OC(F)(F)F [compound 427] | 60 | 47 | 100 | 90 |
| CNC(=O)/C(=N/OC)c1cccc(C)c1CO/N=C(\C)c1c(Cl)cc(Cl)cc1OC(F)(F)F [compound 428] | 83 | 20 | 70 | 11 |
| CO/N=C(/C(=O)OC)c1cccc(C)c1CO/N=C(\C)c1ccc(Cl)c(Cl)c1C(F)(F)F [compound 429] | 67 | 43 | 83 | 50 |
| CO/C=C(/C(=O)OC)c1cccc(C)c1CO/N=C(\C)c1ccc(Cl)c(Cl)c1C(F)(F)F [compound 430] | 37 | 17 | 22 | 6 |
| CNC(=O)/C(=N/OC)c1cccc(C)c1CO/N=C(\C)c1ccc(Cl)c(Cl)c1C(F)(F)F [compound 431] | 40 | 12 | 32 | 7 |
